These results are taken from patent US12686676B2, “Compound, endothelin-A receptor antagonist, and pharmaceutical composition” (Alchemedicine, Inc., priority 2021, dated 2026).

Data set [1] deals with T1, human endothelin A receptor (Homo sapiens, UniProt P25101).
T1 construct: expressed in transfected cells; host or cells: CHO-K1-mt aequorin cells
T1 sequence (P25101 21-427): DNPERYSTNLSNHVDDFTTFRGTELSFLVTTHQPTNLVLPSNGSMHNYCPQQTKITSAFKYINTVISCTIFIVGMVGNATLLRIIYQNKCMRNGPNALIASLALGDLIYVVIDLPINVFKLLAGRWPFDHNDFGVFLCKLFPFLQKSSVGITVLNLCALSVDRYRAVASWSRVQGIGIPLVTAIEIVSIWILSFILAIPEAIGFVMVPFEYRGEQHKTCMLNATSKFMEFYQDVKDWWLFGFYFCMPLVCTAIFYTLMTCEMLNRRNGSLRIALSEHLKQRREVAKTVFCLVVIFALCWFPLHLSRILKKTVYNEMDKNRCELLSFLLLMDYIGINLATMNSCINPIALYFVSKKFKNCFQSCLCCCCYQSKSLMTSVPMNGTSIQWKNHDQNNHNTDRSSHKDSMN
Description: Endothelin A receptor inhibitory effect (aequorin light emission, endothelin at EC80). The conditions noted are these: for IC50: CHO-K1-mt aequorin cells expressing human endothelin A receptor, endothelin at EC80, read-out: ETA receptor inhibitory effect; for ETA selectivity (ETB/ETA): ETB IC50 value/ETA IC50 value. The data set is classed as cell-based. How it is done: The inhibitory effect on an endothelin A receptor was studied by the following method.
CHO-K1-mt aequorin cells forced to express a human endothelin A receptor (Accession Number NP_001948.1) were cultured in an antibiotic-free medium for 18 hours, then treated with PBS-EDTA (5 mM EDTA), centrifuged (2 min, 405×g, room temperature), and then suspended in an assay buffer (DMEM/HAM's F12 with HEPES+0.1% BSA protease free).
(§1) 1×10^6 cells/mL of the cells were incubated at room temperature for 4 hours in the presence of coelenterazine h (Molecular Probes, Inc.) (final concentration: 5 µM). Agonistic reaction based on endothelin was confirmed to determine an endothelin concentration corresponding to EC80.
Subsequently, 50 µL (10000 cells/well) of the cell suspension treated with coelenterazine h and 50 µL of an assay buffer containing a test substance (final concentration: 0.5% in DMSO) were added to each well of a 96-well plate. 15 minutes later, endothelin was added such that its final concentration was an EC80 concentration. Receptor activity was measured as the quantity of light emission in FDSS6000 (Hamamatsu Photonics K.K.). IC50 values were calculated using XLfit (ID Business Solutions Ltd. (IDBS)).

The conditions of data set [2]: in vivo; cited from earlier work.
The conditions of data set [3]: pulmonary hypertension associated with connective tissue disease; cited from earlier work.
The target of data set [4] is T2, human endothelin B receptor (Homo sapiens, UniProt P24530).
T2 construct: expressed in transfected cells; host or cells: CHO-K1-mt aequorin cells
T2 sequence (P24530 27-442): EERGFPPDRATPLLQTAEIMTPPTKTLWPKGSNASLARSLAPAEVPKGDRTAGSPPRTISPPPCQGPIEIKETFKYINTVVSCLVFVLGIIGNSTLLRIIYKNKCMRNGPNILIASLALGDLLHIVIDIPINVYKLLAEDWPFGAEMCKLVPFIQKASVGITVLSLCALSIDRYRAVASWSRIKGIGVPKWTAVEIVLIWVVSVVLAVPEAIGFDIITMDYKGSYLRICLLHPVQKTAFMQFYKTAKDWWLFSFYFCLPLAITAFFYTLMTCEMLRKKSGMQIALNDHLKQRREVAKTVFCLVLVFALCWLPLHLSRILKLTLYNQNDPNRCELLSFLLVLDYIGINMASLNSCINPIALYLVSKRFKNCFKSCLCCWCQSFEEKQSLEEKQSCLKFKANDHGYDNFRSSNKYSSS
Description: Endothelin B receptor inhibitory effect (aequorin light emission, endothelin at EC80). The data set is classed as cell-based. The following applies: CHO-K1-mt aequorin cells expressing human endothelin B receptor; endothelin at EC80; read-out: ETB receptor inhibitory effect. Here is the method:
The inhibitory effect on an endothelin B receptor was studied by the following method.
CHO-K1-mt aequorin cells forced to express a human endothelin B receptor (Accession Number NP_000106.1) were cultured in an antibiotic-free medium for 18 hours, then treated with PBS-EDTA (5 mM EDTA), centrifuged (2 min, 405×g, room temperature), and then suspended in an assay buffer (DMEM/HAM's F12 with HEPES+0.1% BSA protease free).
as §1
Subsequently, 50 µL (10000 cells/well) of the cell suspension treated with coelenterazine h and 50 µL of an assay buffer containing a test substance (final concentration: 0.5% in DMSO) were added to each well of a 96-well plate. 15 minutes later, endothelin was added such that its final concentration was an EC80 concentration. Receptor activity was measured as the quantity of light emission in FDSS6000 (Hamamatsu Photonics K.K.).

For a further data set, the target named is T3, ETA receptor (Homo sapiens, UniProt P25101).
T3 sequence (P25101 21-427): T1 sequence (P25101 21-427)
The conditions noted are these: cited from earlier work.

For data set [5] the following is noted: in vivo; cited from earlier work. The source holds these as a separate data set.
Another data set deals with T4, CYP2C9 (Homo sapiens, UniProt P11712).
T4 construct: A frozen liver microsome fraction was thawed on ice; from tissue; host or cells: liver microsome fraction
Kind of data set: CYP2C9 inhibitory effect (liver microsome fraction, diclofenac substrate). Format: in vitro ADME. The following applies: liver microsome fraction 0.5 mg/mL, diclofenac 2.5 μM. Here is the method: The inhibitory effect on CYP2C9 was evaluated by the following method. • (1) A frozen liver microsome fraction was thawed on ice and diluted with a potassium phosphate buffer (PPB) to a final concentration of 0.5 mg/mL. • (2) A substrate for evaluation (diclofenac: D6899 from Sigma-Aldrich Co. LLC) was added thereto such that its final concentration was 2.5 μM. • (3) The mixture was slowly mixed and incubated at 37±1° C. for 5 minutes to prepare a reaction solution. • (4) 801 μL of the reaction solution was dispensed to each tube, and an evaluation compound serially diluted with 0.9 μL of DMSO was added thereto such that its final concentration was 9.1 to 20000 nM (⅓ dilutions with 8 concentrations). In this context, 0.9 μL of DMSO was added to a negative control group, and 0.9 μL of sulfaphenazole (S0758 from Sigma-Aldrich Co. LLC) adjusted to a final concentration of 1 μM with DMSO was added to a positive control group. • (5) After mixing, a 270 μL aliquot was transferred to each of two fresh tubes and incubated in a shaking water bath at 37±1° C. for 5 minutes. • (6) Reaction was started by the addition of 30 μL of 10 mM NADPH, and the tubes were incubated at 37° C.±1° C. for 10 minutes. • (7) The tubes were taken out of the shaking water bath, and the reaction was terminated by the addition of 300 μL of a reaction stop solution. After mixing, the tubes were centrifuged at 1021×g at 4° C. for 20 minutes. • (8) The amount of the substrate for evaluation metabolized was determined by LC-MS/MS to calculate the rate of inhibition at each concentration of the evaluation compound. • (9) IC50 values were calculated using GraphPad Prism5. A sample having an IC50 value of 1 μM or lower was given “++”; a sample having an IC50 value in the range of higher than 1 μM and 10 μM or lower was given “+”; and a sample having an IC50 value of higher than 10 μM was given “−”.

Structures are written as SMILES.

T4 sequence (P11712 whole entry): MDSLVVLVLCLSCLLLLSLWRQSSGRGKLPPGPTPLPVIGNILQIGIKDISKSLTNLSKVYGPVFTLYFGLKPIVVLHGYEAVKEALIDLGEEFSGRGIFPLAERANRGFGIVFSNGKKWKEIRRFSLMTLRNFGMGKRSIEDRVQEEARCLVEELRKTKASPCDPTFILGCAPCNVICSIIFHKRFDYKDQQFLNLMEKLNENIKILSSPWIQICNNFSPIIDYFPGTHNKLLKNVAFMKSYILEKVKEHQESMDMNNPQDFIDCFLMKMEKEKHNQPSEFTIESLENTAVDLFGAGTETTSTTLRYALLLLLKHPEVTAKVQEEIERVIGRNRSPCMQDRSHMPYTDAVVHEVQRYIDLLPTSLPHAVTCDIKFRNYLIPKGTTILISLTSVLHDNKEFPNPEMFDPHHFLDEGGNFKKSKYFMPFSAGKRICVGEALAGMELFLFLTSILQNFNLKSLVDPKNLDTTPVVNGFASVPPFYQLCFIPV

Regarding `Cc1cc2c(cc1CC(=O)c1sccc1S(=O)(=O)Nc1onc(C)c1Cl)OCO2` [Comparative Example 1, sitaxentan, reference compound], the IC50 in data set [1] is 1 to 10 nM; in data set [4], greater than 5000 nM; against CYP2C9 it was no more than 1000 nM. For the same compound, the “ETA selectivity (ETB/ETA)” value in data set [1] is listed as “++ (ETB IC50 value/ETA IC50 value of higher than 5000)”. For the same compound, the Peripheral edema entry in data set [2] is “not cause peripheral edema”. The “Drug efficacy in clinical trials” value in data set [3] is on record as “significant drug efficacy”. Also, the “Selective inhibition of ETA receptor in contrast to ETB receptor” value at ETA receptor is reported as “selectively inhibit the ETA receptor”. Besides, the “Effect on endothelin concentrations in blood” value in data set [5] was “not increase endothelin concentrations in blood”.

On to `Cc1cc2c(cc1CC(=O)c1sccc1S(=O)(=O)Nc1onc(C)c1Cl)COC2` [Comparative Example 2, reference compound], for which the IC50 in data set [1] was no more than 1 nM; in data set [4], greater than 5000 nM; against CYP2C9 it was no more than 1000 nM. Also, in data set [1], the “ETA selectivity (ETB/ETA)” value is reported as “++ (ETB IC50 value/ETA IC50 value of higher than 5000)”.

Take `Cc1cc2c(cc1C#Cc1ncccc1S(=O)(=O)Nc1noc(C)c1C)C(C)OC2` (centres unmarked) [Example 2, 2-((3,6-Dimethyl-1,3-dihydroisobenzofuran-5-yl)ethynyl)-N-(4,5-dimethylisoxazol-3-yl)pyridine-3-sulfonamide]: the IC50 in data set [1] is no more than 1 nM; in data set [4], greater than 5000 nM. Besides, the “ETA selectivity (ETB/ETA)” value in data set [1] is given as “++ (ETB IC50 value/ETA IC50 value of higher than 5000)”.

For `Cc1cc2c(cc1C#Cc1ncccc1S(=O)(=O)Nc1noc(C)c1C)COC2C` (centres unmarked) [Example 11, 2-((1,6-Dimethyl-1,3-dihydroisobenzofuran-5-yl)ethynyl)-N-(4,5-dimethylisoxazol-3-yl)pyridine-3-sulfonamide], the results for the IC50 in data set [1] and in data set [4] were 1 to 10 nM and greater than 5000 nM, respectively.
